Experiments:
subjects = test: Sensory evaluation of strength of taste of sample solutions by subjects; assay type: in vivo, human; conditions: for strength of sensory sweetness: subjects who showed a change in salivary gland response in Example 2
Text: Each subject is held in a resting state, keeps water in the mouth such that the water spreads throughout the mouth for 30 seconds, then swallows the water, and then is held in a resting state for 60 seconds. Subsequently, the subject keeps a sample in the mouth to carefully taste the sample in the mouth for 30 seconds, then swallows the sample, and then is held in a resting state for 60 seconds again. Subsequently, the subject keeps water in the mouth again such that the water spreads throughout the mouth for 30 seconds, then swallows the water, and then is held in a resting state for 60 seconds. Subsequently, the subject keeps another sample in the mouth to carefully taste the sample in the mouth for 30 seconds, then swallows the sample, and then is held in a resting state for 60 seconds again. Thus, drinking of water and drinking of a sample are alternately repeated (FIG. 2). A sample can be evaluated at about four or five different concentrations in each experiment. […] Samples at previously selected four or five different concentrations are sequentially evaluated by the above-described procedure. During the evaluation of the sample, including the times of drinking and resting, the blood flow is measured, and the change therein is recorded. In addition, sensory evaluation is performed during the tasting of the sample in the mouth for 30 seconds. After completion of the evaluation at a series of four or five concentrations, the strength of flavor of the sample is concluded lastly to fill the sensory evaluation sheet (FIG. 3).
The sensory evaluation was performed in accordance with the evaluation questionnaire shown in FIG. 3 for the strength of taste as 0: tasteless, 3: weak, 6: moderate, 9: strong, and 12: very strong.
The samples of four different concentrations were subjected to sensory evaluation from a lower concentration of ethylmaltol to a higher concentration sequentially in accordance with the time schedule shown in FIG. 2 as in Example 1.

salivary gland = test: Salivary gland response: change in blood flow (signal strength) at a periphery of the temple of the forehead, measured with an optical topography system; assay type: in vivo, human
Text: Each subject is held in a resting state, keeps water in the mouth such that the water spreads throughout the mouth for 30 seconds, then swallows the water, and then is held in a resting state for 60 seconds. Subsequently, the subject keeps a sample in the mouth to carefully taste the sample in the mouth for 30 seconds, then swallows the sample, and then is held in a resting state for 60 seconds again. Subsequently, the subject keeps water in the mouth again such that the water spreads throughout the mouth for 30 seconds, then swallows the water, and then is held in a resting state for 60 seconds. Subsequently, the subject keeps another sample in the mouth to carefully taste the sample in the mouth for 30 seconds, then swallows the sample, and then is held in a resting state for 60 seconds again. Thus, drinking of water and drinking of a sample are alternately repeated (FIG. 2). A sample can be evaluated at about four or five different concentrations in each experiment. […] Samples at previously selected four or five different concentrations are sequentially evaluated by the above-described procedure. During the evaluation of the sample, including the times of drinking and resting, the blood flow is measured, and the change therein is recorded. In addition, sensory evaluation is performed during the tasting of the sample in the mouth for 30 seconds. After completion of the evaluation at a series of four or five concentrations, the strength of flavor of the sample is concluded lastly to fill the sensory evaluation sheet (FIG. 3). When a sample is drunk in accordance with the above-described procedure, the blood flow at a periphery of the temple of the forehead gradually increases after putting the sample into the mouth, and the signal strength reaches the maximum within about 5 to 30 seconds. Subsequently, the signal strength gradually decreases and reaches the original level within about 60 seconds after putting the sample into the mouth. Accordingly, a value obtained by subtracting the “minimum” blood flow within about 15 seconds after the moment of putting a sample into the mouth from the “maximum” blood flow during from about 5 to 30 seconds after putting the sample into the mouth at a specific site, i.e., the response strength of a change in blood flow, is defined as a change in signal strength at the periphery of the temple of the forehead. […] A probe (FIG. 1) having a large number of sensors connected to an optical topography system body was set to the head of each subject, and then each sample was given to the subjects sequentially, followed by measurement. In accordance with the time schedule shown in FIG. 2, after resting, water was first given, and then a sample was given to aggressively evaluate the flavor. The order of drinking aqueous solutions of one kind of a taste substance given to the subjects was from a lower concentration to a higher concentration sequentially. (1) FIG. 4 is a graph illustrating the amount of typical change in oxygenated hemoglobin with time when water was put in the mouth and drunk and then a sample was put in the mouth and drunk, measured with an optical topography system at a periphery of the temple of the forehead (channel 52). […] The response strength was determined by that “when the time at which a sample was drunk is defined as a time of 0 second, (the maximum blood flow within 5 to 30 seconds)−(the minimum blood flow within 0 to 15 seconds)”.

[1] = 0, 1, 5, 10 ppm added to 4% aqueous sugar solution

In the case of `OCCc1ccccc1` [2-phenylethyl alcohol], the “strength of sensory sweetness” value (subjects; [1]) is reported as “No increase”.

With `CC(C)=CCCC(C)=CC=O` [citral] the “strength of sensory acidity” value (subjects; 0, 1, 5, 10 ppm added to 0.1% aqueous citric acid solution, subjects showing a change in salivary gland response to a known flavor-improving agent) was “increased with the concentration”, the “strength of sensory sweetness” value (subjects; [1]) was “No increase” and the “response measured at the periphery of the temple of the forehead compared with 0.1% aqueous citric acid solution alone” value (salivary gland; 0, 1, 5, 10 ppm added to 0.1% aqueous citric acid solution, subjects showing a change in salivary gland response to a known flavor-improving agent, FIG. 10) was “enhanced”.

In the case of `CCc1occc(=O)c1O` [ethylmaltol, reference compound], the “strength of sensual sweetness” value (subjects; 0, 1, 5, 10 ppm added to 4% aqueous sugar solution, eight arbitrarily selected subjects) is reported as “increased with the amount of ethylmaltol” and the “signal strength compared with 4% aqueous sugar solution alone” value (salivary gland; 0, 1, 5, 10 ppm added to 4% aqueous sugar solution, eight arbitrarily selected subjects, FIGS. 6 and 7) is reported as “An enhancement in signal strength by addition of ethylmaltol was confirmed in six subjects”.

With `COc1ccc(C=CC=O)cc1` [p-methoxycinnamaldehyde] the “strength of sensory sweetness” value (subjects; [1]) was “increased with the concentration” and the “response measured at the periphery of the temple of the forehead compared with 4% aqueous sugar solution alone” value (salivary gland; 0, 1, 5, 10 ppm added to 4% aqueous sugar solution, subjects who showed a change in salivary gland response in Example 2, FIGS. 8 and 9) was “enhanced”.

For `OC[C@H]1O[C@@](CO)(O[C@H]2O[C@H](CO)[C@@H](O)[C@H](O)[C@H]2O)[C@@H](O)[C@@H]1O` [sugar], the “response strength measured at a periphery of the temple of the forehead, compared with water” value (salivary gland; aqueous sugar solution 0 to 8%, eight arbitrarily selected subjects) was “larger than that to water in all subjects” and the “dependence of response strength on sample concentration and sweetness strength” value (salivary gland; sugar concentration range 0 to 8%, eight subjects) was “an enhancement of the response strength depending on the sample concentration and the sweetness strength was observed”.
